Results published in US20020042121A1, “METHOD FOR MEASURING THE ASSOCIATION OF SUBSTRUCTURES OF PATHOLOGICAL PROTEIN DEPOSITIONS” (priority 1997, published 2002).

Molecular target: T1, synthetic Aβ1-42 aggregates (Homo sapiens, UniProt P05067)
T1 construct: synthetic Aβ1-42 aggregates
Assay: FCS measurement of association of the probe Aβ1-42-Cy2 to Aβ1-42 aggregates in the presence of a suspected active substance (screening model)
Format: biochemical
From the text: A screening method for detecting active substances for the treatment of diseases associated with pathological protein depositions, which is analogous with the method according to the invention, is based on the fact that the association of substructures of the pathological protein depositions, structures forming pathological protein depositions, structures corresponding to pathological protein depositions and/or pathological protein depositions to substructures of the pathological protein depositions, structures forming pathological protein depositions, structures corresponding to pathological protein depositions as targets is measured in the presence of suspected active substances. As an alternative, association of substructures of pathological protein depositions, structures forming pathological protein depositions, structures corresponding to pathological protein depositions and/or pathological protein depositions to substructures of the pathological protein depositions, structures forming pathological protein depositions, structures corresponding to pathological protein depositions as targets is first performed, and then the reversal of the association under the action of suspected active substances is observed. Then, those compounds are identified as active substances which are capable of causing a reversal of the association in a significant way. […]

T1 sequence (P05067 672-713 limits assumed): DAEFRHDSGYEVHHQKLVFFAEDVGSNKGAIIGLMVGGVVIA

Nc1c(/N=N/c2ccc(-c3ccc(/N=N/c4cc(S(=O)(=O)O)c5ccccc5c4N)cc3)cc2)cc(S(=O)(=O)O)c2ccccc12 [Congo red]
detectable peaks as compared to the control batch (1 mM Congo red, FCS, 20 measurements each with one minute of measuring time, FIG. 13 bottom vs top): significant decrease of the detectable peaks | activity at 1000 µM (read-out: decrease of the signal intensity of the homologous association to): 20%
